# Assay results from patent publication US20100331297A1, “MODULATION OF PROTEIN TRAFFICKING” (FOLDRX PHARMACEUTICALS, INC., priority 2007, published 2010).
# Experiments:
# Assay type in all cases: cell-based
# ypt1^ts cells = assay: Rescue of growth of ypt1^ts mutant yeast (OD600); details: Saccharomyces cerevisiae, read-out: Ypt1-ts MRC (Minimum Rescue Concentration), ypt1^ts cells, 35° C. and 37° C., OD600; multiple results separated by a comma
# Outline: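 Log-phase ypt1^ts cells (N121I/A161V) in SC 2% glucose were diluted to OD600 0.003 and treated with compound at 50 μM-0.05 μM final in 1% DMSO. Cultures were incubated at 35° C. (read at 24 and 40 h) or 37° C. (read at 40 h), with rescue measured as OD600 growth and reported as minimum rescue concentration.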
# TS217 cells = assay: Rescue of cell viability from α-synuclein-induced cytotoxicity (cellular ATP, […]); details: tetracycline 5 days, 3 μM concentration, P<0.02
# Description: Treatment of TS217 cells with 0.1 μg/mL tetracycline for three to six days induces expression of α-synuclein, which can be cytotoxic. […] After the five day treatment, cells were lysed and assayed for intracellular ATP concentration as a function of cell viability. The relative viability of the cells was assessed by measuring the cellular ATP level in cell lysates using a […]® Plus Bioassay kit (Cambrex, Rockland, Me.). Relative cell viability was calculated as the ratio of induced cells to control cells (cells not treated with tetracycline), as an indication of α-synuclein-induced cytotoxicity. […] By contrast, cells treated with compound 90 at 3 μM concentration reduced the α-synuclein-induced cytotoxicity by 45% (P<0.02) as compared to the control wells lacking the compound. Thus, compound 90 rescues cell viability from α-synuclein-induced cytotoxicity.
# ΔF508 CFTR [1] = target: T1, ΔF508 CFTR (Homo sapiens, UniProt P13569, DEL508-508); assay: Corrector activity, YFP halide (iodide) quenching assay in FRT cells expressing ΔF508 CFTR; design: expressed in transfected cells; host or cells: Fischer rat thyroid (FRT) cells; details: FRT cells ΔF508 CFTR/YFP, 24 hours with compound at 37° C., forskolin and genistein; read-out: Corrector EC50
# T1 sequence (P13569 with tags, fused parts or gaps DEL508-508): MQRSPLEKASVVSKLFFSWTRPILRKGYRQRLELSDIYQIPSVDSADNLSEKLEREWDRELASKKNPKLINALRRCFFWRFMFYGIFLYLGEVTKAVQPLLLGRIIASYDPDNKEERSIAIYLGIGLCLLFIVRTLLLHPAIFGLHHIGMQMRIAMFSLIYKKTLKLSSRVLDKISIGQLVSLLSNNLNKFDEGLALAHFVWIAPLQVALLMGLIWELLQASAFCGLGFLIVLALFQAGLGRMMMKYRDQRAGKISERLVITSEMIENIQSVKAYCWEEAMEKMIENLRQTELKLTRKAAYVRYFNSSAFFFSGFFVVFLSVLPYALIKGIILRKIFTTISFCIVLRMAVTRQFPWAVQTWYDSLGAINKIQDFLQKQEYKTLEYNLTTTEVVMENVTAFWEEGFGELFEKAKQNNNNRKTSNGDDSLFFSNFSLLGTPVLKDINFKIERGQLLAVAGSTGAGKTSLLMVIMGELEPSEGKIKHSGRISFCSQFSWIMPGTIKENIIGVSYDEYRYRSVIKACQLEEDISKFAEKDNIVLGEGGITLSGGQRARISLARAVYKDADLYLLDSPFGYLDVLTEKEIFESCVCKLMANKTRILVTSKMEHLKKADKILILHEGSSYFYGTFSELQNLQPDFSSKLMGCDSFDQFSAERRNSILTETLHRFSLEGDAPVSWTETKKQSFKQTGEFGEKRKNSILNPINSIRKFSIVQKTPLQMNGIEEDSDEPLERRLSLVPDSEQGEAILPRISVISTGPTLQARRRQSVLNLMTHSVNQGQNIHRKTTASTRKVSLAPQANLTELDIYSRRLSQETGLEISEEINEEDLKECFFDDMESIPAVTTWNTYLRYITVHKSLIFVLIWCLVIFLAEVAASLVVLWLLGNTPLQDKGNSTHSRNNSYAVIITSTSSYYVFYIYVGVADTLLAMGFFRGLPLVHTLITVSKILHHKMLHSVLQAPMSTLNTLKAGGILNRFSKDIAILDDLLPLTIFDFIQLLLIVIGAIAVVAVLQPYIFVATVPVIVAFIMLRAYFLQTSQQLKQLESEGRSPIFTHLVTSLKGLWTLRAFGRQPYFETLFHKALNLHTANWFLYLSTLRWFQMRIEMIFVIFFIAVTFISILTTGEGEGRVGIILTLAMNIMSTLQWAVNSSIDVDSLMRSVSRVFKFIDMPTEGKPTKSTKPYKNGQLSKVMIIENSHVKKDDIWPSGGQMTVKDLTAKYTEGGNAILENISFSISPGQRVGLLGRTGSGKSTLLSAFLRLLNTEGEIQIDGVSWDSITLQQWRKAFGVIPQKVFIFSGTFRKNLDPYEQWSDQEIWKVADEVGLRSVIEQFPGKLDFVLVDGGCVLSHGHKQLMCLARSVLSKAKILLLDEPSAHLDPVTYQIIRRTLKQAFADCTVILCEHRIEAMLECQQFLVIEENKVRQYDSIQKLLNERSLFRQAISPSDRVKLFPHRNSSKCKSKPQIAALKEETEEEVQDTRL
# Outline: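 FRT cells co-expressing ΔF508 CFTR and halide-sensitive YFP were incubated 24 h at 37° C with compounds, then stimulated 30 min at 37° C in PBS with forskolin and genistein. Endpoint fluorescence after iodide injection was normalized to initial reading; EC50 from 4-parameter fit with bottom constrained to DMSO control.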
# ΔF508 CFTR [2] = target: T1, ΔF508 CFTR; assay: Potentiator activity, YFP halide (iodide) quenching assay in FRT cells expressing ΔF508 CFTR, 27° C. pre-incubation; design: expressed in transfected cells; host or cells: Fischer rat thyroid (FRT) cells; details: FRT cells ΔF508 CFTR/YFP, 24 hours at 27° C., compound with forskolin 30 min
# Outline: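 FRT cells stably co-expressing ΔF508 CFTR and halide-sensitive YFP, grown 24 h at 37° C. then 24 h at 27° C. to raise surface CFTR. Compounds in PBS with forskolin, 30 min at 37° C.; iodide injected and YFP quenching (ex 485/em 530 nm) followed. EC50 from normalized endpoint fluorescence.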
smiles,measurement,setting,value
"CC(C)(C)n1nc(Oc2ccccc2)c2c(N)ncnc21 [compound 90, 1-tert-Butyl-3-phenoxy-1H-pyrazolo[3,4-d]pyrimidin-4-ylamine]",minimal effective concentration,ypt1^ts cells,> 50 µM
same,reduction of α-synuclein-induced cytotoxicity compared to control wells,TS217 cells,45%
same,EC50,ΔF508 CFTR [1],> 15 µM
same,EC50,ΔF508 CFTR [2],< 2 µM
